Results reported in patent publication US5286648A, “A84575 antibiotics” (Eli Lilly and Company, priority 1991, dated 1994).
In brackets after ≈: the same amount, converted by molar mass.

Columns and labels:
[1] = tested on: Bacteroides corrodens; experiment: Susceptibility of anaerobic bacterial isolates, agar dilution (Table 13); assay type: cell-based; conditions: Eikenella corrodens, 24 h
[2] = tested on: Peptostreptococcus intermedius; experiment: Susceptibility of anaerobic cocci isolates, agar dilution (Table 16); assay type: cell-based; conditions: 24 h
[3] = tested on: Peptococcus variabilis; experiment: as above; assay type: cell-based; conditions: 24 h
[4] = tested on: Streptococcus pneumoniae; experiment: In vivo activity, administered subcutaneously to mice (Table 17); conditions: sc, subcutaneous, LD challenge 587
[5] = tested on: Fusobacterium symbiosum; experiment: Susceptibility of anaerobic bacterial isolates, agar dilution (Table 13); assay type: cell-based; conditions: 24 h
[6] = tested on: Bacteroides malaninogenicus; experiment: as above; assay type: cell-based; conditions: 24 h
[7] = tested on: Peptostreptococcus anaerobium; experiment: as above; assay type: cell-based; conditions: 24 h
[8] = tested on: Hemophilus influenza; experiment: In vitro activity vs. Hemophilus influenza strains, broth dilution, Shadler broth + 5% fildes extract (Table 12); assay type: cell-based
Excerpt: ^1 Using brothdilution method and testing the strains with Shadler
broth +5% fildes extract

[9] = tested on: Peptostreptococcus intermedius; experiment: Susceptibility of anaerobic bacterial isolates, agar dilution (Table 13); assay type: cell-based; conditions: 24 h
[10] = tested on: Streptococcus aureus; experiment: In vivo activity, administered subcutaneously to mice (Table 17); conditions: sc
[11] = tested on: Clostridium difficile; experiment: Susceptibility of Clostridium difficile strains, agar dilution (Table 14); assay type: cell-based; conditions: Clostridioides difficile, 24 h
Excerpt: (§1) *MIC Determined by the AgarDilution Method, Endpoints Read After 24Hr.

[12] = tested on: Peptococcum asaccharolyticus; experiment: Susceptibility of anaerobic bacterial isolates, agar dilution (Table 13); assay type: cell-based; conditions: 24 h
[13] = tested on: S. salivarius; experiment: In vitro activity vs. miscellaneous Streptococcus strains, agar dilution, Mueller-Hinton agar (Table 9)
[14] = tested on: Streptococcus pyogenes; experiment: In vivo activity, administered subcutaneously to mice (Table 17); conditions: sc, subcutaneous, LD challenge 464
[15] = tested on: Propionibacterium acnes; experiment: Susceptibility of anaerobic bacterial isolates, agar dilution (Table 13); assay type: cell-based; conditions: Cutibacterium acnes, 24 h
[16] = tested on: Peptococcus magnus; experiment: Susceptibility of anaerobic cocci isolates, agar dilution (Table 16); assay type: cell-based; conditions: Finegoldia magna, 24 h
[17] = Plasma levels in mice (Table 18); assay type: in vivo, mice (ICR Barrier); set-up: unit not given here; conditions: subcutaneous, 20 mg/kg, n = 5
[18] = tested on: Peptococcus asaccharolyticus; experiment: Susceptibility of anaerobic cocci isolates, agar dilution (Table 16); assay type: cell-based; conditions: Peptoniphilus asaccharolyticus, 24 h
[19] = tested on: Fusobacterium necrophorum; experiment: Susceptibility of anaerobic bacterial isolates, agar dilution (Table 13); assay type: cell-based; conditions: 24 h
[20] = tested on: Peptococcus prevoti; experiment: as above; assay type: cell-based; conditions: strain 1281; 24 hr; A84575: 3 different lots
Excerpt: as §1

[21] = tested on: Clostridium difficile; experiment: as above; assay type: cell-based; conditions: Clostridioides difficile; strain 2994; 24 hr; A84575: 3 different lots
Excerpt: as §1

[22] = tested on: Clostridium septicum; experiment: as above; assay type: cell-based; conditions: strain 1128, 24 hr, A84575: 3 different lots
Excerpt: as §1

[23] = tested on: Bacteroides thetaiotaomicron; experiment: as above; assay type: cell-based; conditions: strain 1438, 24 hr, A84575: 3 different lots
Excerpt: as §1

[24] = tested on: Staphylococcus epidermidis; experiment: In vitro activity vs. Staphylococcus epidermidis strains, agar dilution, Mueller-Hinton agar (Table 7); assay type: cell-based
[25] = tested on: Propionibacterium acnes; experiment: Susceptibility of Propionibacterium acnes isolates, agar dilution (Table 15); assay type: cell-based; conditions: Cutibacterium acnes, 24 h

CN[C@H](CC(C)C)C(=O)N[C@H]1C(=O)N[C@@H](CC(N)=O)C(=O)N[C@H]2C(=O)N[C@H]3C(=O)N[C@H](C(=O)N[C@H](C(=O)O)c4cc(O)cc(O)c4-c4cc3ccc4O)[C@H](O)c3ccc(c(Cl)c3)Oc3cc2cc(c3O[C@@H]2O[C@H](CO)[C@@H](O)[C@H](O)[C@H]2O[C@H]2C[C@](C)(N)[C@H](O)[C@H](C)O2)Oc2ccc(cc2Cl)[C@H]1O [Vancomycin]
MIC [1]: 16 µg/mL (≈ 11 µM)
MIC ([2]; strain 1524, A84575: 3 different lots): 1 µg/mL (≈ 0.69 µM)
MIC ([2]; strain 1624, A84575: 3 different lots): 0.25 µg/mL (≈ 0.173 µM)
MIC [3]: 0.125 µg/mL (≈ 0.0863 µM)
ED50 [4]: 1.58 mg/kg
MIC [5]: 1 µg/mL (≈ 0.69 µM)
MIC ([6]; strain 1856/28, A84575: 3 different lots): > 64 µg/mL
MIC ([6]; strain 2736, A84575: 3 different lots): 16 µg/mL (≈ 11 µM)
MIC [7]: 1 µg/mL (≈ 0.69 µM)
MIC ([8]; strain Astes): 64 µg/mL
MIC ([8]; strain Bond): 64 µg/mL
MIC ([8]; strain Bruno): 128 µg/mL
MIC ([8]; strain Harper): 64 µg/mL
MIC ([8]; strain Johnson): 64 µg/mL
MIC ([8]; strain Lassig): 32 µg/mL
MIC ([8]; strain Lawrence): 64 µg/mL
MIC ([8]; strain Newton): 64 µg/mL
MIC [9]: 1 µg/mL (≈ 0.69 µM)
ED50 [10]: 0.83 mg/kg
MIC ([11]; strain 78, A84575: 3 different lots): 4 µg/mL (≈ 2.76 µM)
MIC ([11]; strain 107B, A84575: 3 different lots): 0.25 µg/mL (≈ 0.173 µM)
MIC ([11]; strain 111F, A84575: 3 different lots): 1 µg/mL (≈ 0.69 µM)
MIC ([11]; strain 1153, A84575: 3 different lots): 1 µg/mL (≈ 0.69 µM)
MIC ([11]; strain 2634, A84575: 3 different lots): 0.5 µg/mL (≈ 0.345 µM)
MIC ([11]; strain 3424-5B, A84575: 3 different lots): 1 µg/mL (≈ 0.69 µM)
MIC ([11]; strain 3816, A84575: 3 different lots): 1 µg/mL (≈ 0.69 µM)
MIC ([11]; strain 3950D, A84575: 3 different lots): 0.5 µg/mL (≈ 0.345 µM)
MIC ([11]; strain 6890, A84575: 3 different lots): 0.5 µg/mL (≈ 0.345 µM)
MIC ([11]; strain 8484, A84575: 3 different lots): 2 µg/mL (≈ 1.38 µM)
MIC ([11]; strain A-194, A84575: 3 different lots): 1 µg/mL (≈ 0.69 µM)
MIC ([11]; strain A-195, A84575: 3 different lots): 0.5 µg/mL (≈ 0.345 µM)
MIC ([11]; strain A-196, A84575: 3 different lots): 0.5 µg/mL (≈ 0.345 µM)
MIC ([11]; strain A-279, A84575: 3 different lots): 0.5 µg/mL (≈ 0.345 µM)
MIC ([11]; strain A-280, A84575: 3 different lots): 1 µg/mL (≈ 0.69 µM)
MIC ([11]; strain A-281, A84575: 3 different lots): 1 µg/mL (≈ 0.69 µM)
MIC ([11]; strain WAL-2112, A84575: 3 different lots): 1 µg/mL (≈ 0.69 µM)
MIC ([11]; strain WAL-3657, A84575: 3 different lots): 2 µg/mL (≈ 1.38 µM)
MIC ([11]; strain WAL-4268, A84575: 3 different lots): 1 µg/mL (≈ 0.69 µM)
MIC [12]: 4 µg/mL (≈ 2.76 µM)
MIC [13]: 1 µg/mL (≈ 0.69 µM)
ED50 [14]: 0.72 mg/kg
MIC [15]: 4 µg/mL (≈ 2.76 µM)
MIC ([16]; strain 1401, A84575: 3 different lots): 0.125 µg/mL (≈ 0.0863 µM)
MIC ([16]; strain 1421, A84575: 3 different lots): 0.5 µg/mL (≈ 0.345 µM)
MIC ([16]; strain 29328, A84575: 3 different lots): 1 µg/mL (≈ 0.69 µM)
Plasma level ([17]; 0.08 hours, *1 only 1 zone out of 5 (A84575 Complex)): 5.84 ± 2.68
Plasma level ([17]; 0.33 hours): 14.25 ± 7.8
Plasma level ([17]; 0.66 hours): 7.47 ± 2.5
Plasma level ([17]; 1 hour): 5.41 ± 2.4
Plasma level ([17]; 2 hours, *2 one very high concentration in one animal (A84575 Complex)): 0.87 ± 0.2
MIC ([18]; strain 1302, A84575: 3 different lots): 1 µg/mL (≈ 0.69 µM)
MIC ([18]; strain WAL-3218, A84575: 3 different lots): 0.125 µg/mL (≈ 0.0863 µM)
MIC [19]: 1 µg/mL (≈ 0.69 µM)
MIC [20]: 4 µg/mL (≈ 2.76 µM)
MIC [21]: 2 µg/mL (≈ 1.38 µM)
MIC [22]: 2 µg/mL (≈ 1.38 µM)
MIC [23]: 16 µg/mL (≈ 11 µM)
MIC ([24]; strain 10-S-81, methicillin-resistant): 1 µg/mL (≈ 0.69 µM)
MIC ([24]; strain 1202-18): 2 µg/mL (≈ 1.38 µM)
MIC ([24]; strain 3078): 1 µg/mL (≈ 0.69 µM)
MIC ([24]; strain 3079): 2 µg/mL (≈ 1.38 µM)
MIC ([24]; strain 12477, methicillin-resistant): 2 µg/mL (≈ 1.38 µM)
MIC ([24]; strain 48213): 2 µg/mL (≈ 1.38 µM)
MIC ([24]; strain 48989): 1 µg/mL (≈ 0.69 µM)
MIC ([24]; strain 49030): 2 µg/mL (≈ 1.38 µM)
MIC ([24]; strain 49128, methicillin-resistant): 1 µg/mL (≈ 0.69 µM)
MIC ([24]; strain 49536): 1 µg/mL (≈ 0.69 µM)
MIC ([24]; strain 50766): 1 µg/mL (≈ 0.69 µM)
MIC ([24]; strain S-3): 2 µg/mL (≈ 1.38 µM)
MIC ([24]; strain ST-214, methicillin-resistant): 0.5 µg/mL (≈ 0.345 µM)
MIC ([24]; strain ST-215, methicillin-resistant): 2 µg/mL (≈ 1.38 µM)
MIC ([24]; strain ST-216): 1 µg/mL (≈ 0.69 µM)
MIC ([24]; strain ST-217, methicillin-resistant): 1 µg/mL (≈ 0.69 µM)
MIC ([24]; strain ST-220, methicillin-resistant): 1 µg/mL (≈ 0.69 µM)
MIC ([24]; strain ST-222, methicillin-resistant): 0.5 µg/mL (≈ 0.345 µM)
MIC ([25]; strain #44, A84575: 3 different lots): 0.5 µg/mL (≈ 0.345 µM)
MIC ([25]; strain #103, A84575: 3 different lots): 0.25 µg/mL (≈ 0.173 µM)
MIC ([25]; strain #104, A84575: 3 different lots): 0.5 µg/mL (≈ 0.345 µM)
MIC ([25]; strain #105, A84575: 3 different lots): 0.25 µg/mL (≈ 0.173 µM)
MIC ([25]; strain #106, A84575: 3 different lots): 0.5 µg/mL (≈ 0.345 µM)
MIC ([25]; strain #107, A84575: 3 different lots): 0.25 µg/mL (≈ 0.173 µM)
MIC ([25]; strain #5170, A84575: 3 different lots): 0.25 µg/mL (≈ 0.173 µM)
MIC ([25]; strain #5176, A84575: 3 different lots): 2 µg/mL (≈ 1.38 µM)
MIC ([25]; strain #5187, A84575: 3 different lots): 0.5 µg/mL (≈ 0.345 µM)
MIC ([25]; strain #5191, A84575: 3 different lots): 0.5 µg/mL (≈ 0.345 µM)
MIC ([25]; strain #5197, A84575: 3 different lots): 0.5 µg/mL (≈ 0.345 µM)
MIC ([25]; strain #5226, A84575: 3 different lots): 0.5 µg/mL (≈ 0.345 µM)
MIC ([25]; strain #5227, A84575: 3 different lots): 0.25 µg/mL (≈ 0.173 µM)
MIC ([25]; strain #5228, A84575: 3 different lots): 0.25 µg/mL (≈ 0.173 µM)
MIC ([25]; strain #5229, A84575: 3 different lots): 0.25 µg/mL (≈ 0.173 µM)
MIC ([25]; strain #5246, A84575: 3 different lots): 0.25 µg/mL (≈ 0.173 µM)
MIC ([25]; strain #5260, A84575: 3 different lots): 0.5 µg/mL (≈ 0.345 µM)
MIC ([25]; strain #5292, A84575: 3 different lots): 0.5 µg/mL (≈ 0.345 µM)
MIC ([25]; strain #8586A, A84575: 3 different lots): 0.5 µg/mL (≈ 0.345 µM)
